Experimental data as given in patent US9889146B2, “Benzoxaborole compounds and uses thereof” (priority 2012, dated 2018).
Converted amounts (≈) assume the structure as drawn. “And” between values parts separate entries of the source, which are not always exact repeats. Identical values can stand only once. “Also recorded” adds a separate entry of the source. Like-named read-outs stand apart in the source and are kept apart here.

Assays:
[1] = tested on: Enterobacter aerogenes (AmpC); test: microbe, parasite or virus in culture; type: cell-based; conditions: Klebsiella aerogenes
E. coli ATCC 25922 = test: Spontaneous frequency of resistance; type: cell-based; conditions: 10 X MIC, 24 h
Procedure, shortened: (§1)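 Resistant mutants selected by plating varying inocula on MHBII noble agar with 4× or 10× MIC of GSK2251052, 24 and 48 h at 37 °C; resistance confirmed by regrowth on drug plates. Frequency = resistant colonies ÷ total cells plated, counted from dilutions of overnight culture on LB.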

K. pneumoniae ATCC 13883 = test: Spontaneous frequency of resistance; type: cell-based; conditions: 4 X MIC, 24 h
Procedure, shortened: as §1

P. aeruginosa ATCC 27853 = test: Spontaneous frequency of resistance; type: cell-based; conditions: 24 h
Procedure, shortened: as §1

[2] = tested on: E. coli ATCC 25922, K. pneumoniae ATCC 13883, and P. aeruginosa ATCC 27853; test: Spontaneous frequency of resistance, three strains summarised; type: cell-based
Procedure: Spontaneous Resistance Frequency was determined in vitro for GSK2251052 and the resistance mutants in E. coli ATCC 25922, K. pneumoniae ATCC 13883, and P. aeruginosa ATCC 27853 strains were characterized. GSK2251052 was prepared as described in U.S. Pat. No. 7,816,344 (the entire contents of which are hereby incorporated by reference herein). LB broth, Mueller Hinton II broth (adjusted), and Difco noble agar were obtained from Becton Dickinson (Cockeysville, Md., USA). M9 minimal broth containing 1×M9 salt, 0.5 μg/ML thiamine, 1 mM MgSO4, 0.1 mM CaCl2, 2% glucose, was obtained from Teknova (Hollister, Calif., USA). Antibacterial agents ciprofloxacin, ceftazidime, chloramphenicol, gentamycin, kanamycin, polymixin B, tobramycin and trimethoprim, and amino acids were obtained from Sigma Chemicals (St. Louis, Mo., USA). Strains were obtained from ATCC (Manassas, Va., USA).
Selection of resistance to GSK2251052 was attempted by spreading various amounts of bacteria onto MHBII noble agar plates containing 4×MIC (minimum inhibitory concentration) or 10×MIC of GSK2251052. Colonies were counted after 24 hours and 48 hours incubation at 37° C. […] Frequency of resistance was determined by dividing the number of resistant mutants by the total number of cells plated as determined by plating dilutions of the overnight culture on LB plates.

[3] = tested on: E. coli 1162222 (standard strain) and clinical isolate 1a of E. coli; test: Frequency of spontaneous resistance to GSK2251052 in the presence of norvaline; type: cell-based, Escherichia coli
Procedure: Clinical strains of Escherichia coli and Proteus mirabilis isolated from the above-described clinical trial study (Table 12), along with other E. coli strains were used to measure the suppression of the emergence of resistant bacterial strains in vitro and to determine the susceptibility of these GSK2251052 resistant bacterial isolates to norvaline.
GSK2251052 and norvaline were prepared at a concentration of 6.4 mg/mL (free base) in 100% DMSO and 100% water respectively, aliquoted in 0.5 mL individual stocks, and stored at −20° C. until required.
Plates were poured and left to cool and solidify.
Cultures were prepared by inoculating broth with a bacterial suspension in saline, prepared from plates derived from individual colonies. For each organism, 100 mL of CAMHB was inoculated with 5 mL of a bacterial suspension with turbidity equivalent to 0.5 McFarland. These cultures were incubated on an orbital shaker at 37° C. until the broth was visibly turbid (approximately 3 hours). Following incubation, cultures were centrifuged at 11,000 g for 10 min at 4° C. The culture media was then decanted and cell pellets were resuspended to an appropriate cell concentration in fresh CAMHB or M9. The ratio of OD625 to CFU/mL used to approximate culture size is 0.1:1.0×10^8. Targeted E. coli cell concentrations were 2×10^9 CFU/mL.
Viable counts were performed to determine the concentration of the initial test inoculum using the following steps: 1) ten-fold serial dilutions of each sample were prepared; 2) three 20 μL aliquots from wells corresponding to 10^−5, […], 10^−7 and 10^−8 dilutions were plated onto the appropriate agar plates; 3) the plates were incubated overnight at 35° C. and counts were performed at the dilution that provided distinguishable colonies; 4) an average of the three aliquots was used to determine the number of colony forming units (CFU) in the original sample.
In addition, 100 μL of each cell suspension was spread onto the surface of plates containing the appropriate multiple of MIC concentration of compound and a control agar plate containing no compound. Plates were incubated at 35° C. in ambient air.
Colonies were counted after 24, 48 and 72 hours. […] In order to confirm their resistance phenotype, the susceptibility of these isolates to the selecting agent was tested by broth microdilution methodology.
The frequency of spontaneous resistance was calculated by dividing the total number of resistant colonies growing on plates containing antibiotic by the total number of colony forming units plated. In order to confirm the resistance phenotype, the MIC of the selecting agent was determined against a representative number of colonies from each antibiotic concentration/strain combination. […] The total number of resistant colonies on the plates was extrapolated from the representative set tested.

[4] = tested on: clinical isolates from the four subjects (E. coli, P. mirabilis, K. pneumoniae); test: Resistance in clinical isolates of the phase II clinical trial; type: cell-based
Procedure: A comparative, dose-ranging study of GSK2251052 vs. imipenem-cilastatin in complicated lower urinary tract infection and pyelonephritis was undertaken with 210 targeted patients (20 actually enrolled) in a phase II clinical trial. The study was designed to determine the appropriate and safe dose for Phase III trials. Doses were 750 mg or 1500 mg twice a day, compared to an active comparator, with an independent safety review committee.
The phase II clinical trial identified four subjects who developed spontaneous resistance to GSK2251052 as evidenced by increased MICs (>32-fold) determined for the clinical isolates from the four subjects. Two of the resistant mutant strains identified were E. coli strains, one was a P. mirabilis strain, and one was a K. pneumoniae strain.

`NC[C@H]1OB(O)c2c(OCCCO)cccc21` [GSK2251052, (S)-3-aminomethyl-7-(3-hydroxy-propoxy)-3h-benzo[c][1,2]oxaborol-1-ol] was tested, and the MIC90 [1] was 1 µg/mL (≈ 4.22 µM), the MIC90 ([1]; read-out: susceptibility category of MIC90) was < 4 µg/mL and the “Frequency of Resistance” value (E. coli ATCC 25922) was 8 × 10^−8 and 6 × 10^−8 and 7 × 10^−8. The “Frequency of Resistance” value (K. pneumoniae ATCC 13883) was 4 × 10^−8 and 5 × 10^−8 and 8 × 10^−7, the “Frequency of Resistance” value (P. aeruginosa ATCC 27853; 4 X MIC) was 1 × 10^−7 and 2 × 10^−7 and the “Frequency of Resistance” value (P. aeruginosa ATCC 27853; 10 X MIC) was 5 × 10^−8 and 9.6 × 10^−8. The “frequency of resistance, range” value ([2]; measured at 24 h) was 10^−7 to 10^−8, the “frequency of resistance, range” value ([2]; three ATCC strains, 24 h and 48 h time points) was 10^−7 to 10^−8 and the “Frequency of Resistant to GSK2251052 (4 μg/mL)” value (“Frequency of Resistant” below) ([3]; CAMH Agar, E. coli Isolate 1a, Norvaline 0 μg/mL) was 6.3 × 10^−8. For the same compound, the “Frequency of Resistant” value ([3]; CAMH Agar, E. coli Isolate 1a, Norvaline 2 μg/mL) was 7.6 × 10^−8, the “Frequency of Resistant” value ([3]; CAMH Agar, E. coli Isolate 1a, Norvaline 4 μg/mL) was 4.7 × 10^−8 and the “Frequency of Resistant” value ([3]; CAMH Agar, E. coli Isolate 1a, Norvaline 8 μg/mL) was 6.3 × 10^−8. The “Frequency of Resistant” value ([3]; CAMH Agar, E. coli Isolate 1a, Norvaline 16 μg/mL) was 4.5 × 10^−8, the “Frequency of Resistant” value ([3]; CAMH Agar, E. coli Isolate 1a, Norvaline 32 μg/mL) was 5.0 × 10^−8 and the “Frequency of Resistant” value ([3]; CAMH Agar, E. coli Isolate 1a, Norvaline 64 μg/mL) was 5.3 × 10^−8. For the same compound, the “Frequency of Resistant” value ([3]; CAMH Agar, E. coli baseline strain, Norvaline 0 μg/mL) was 1.2 × 10^−7, the “Frequency of Resistant” value ([3]; CAMH Agar, E. coli baseline strain, Norvaline 2 μg/mL) was 5.0 × 10^−8 and the “Frequency of Resistant” value ([3]; CAMH Agar, E. coli baseline strain, Norvaline 4 μg/mL) was 1.2 × 10^−7. The “Frequency of Resistant” value ([3]; CAMH Agar, E. coli baseline strain, Norvaline 8 μg/mL) was 6.8 × 10^−8, the “Frequency of Resistant” value ([3]; CAMH Agar, E. coli baseline strain, Norvaline 16 μg/mL) was 6.1 × 10^−8 and the “Frequency of Resistant” value ([3]; CAMH Agar, E. coli baseline strain, Norvaline 32 μg/mL) was 1.1 × 10^−7. For the same compound, the “Frequency of Resistant” value ([3]; CAMH Agar, E. coli baseline strain, Norvaline 64 μg/mL) was 9.3 × 10^−8, the “Frequency of Resistant” value ([3]; M9 Agar, E. coli Isolate 1a, Norvaline 0 μg/mL) was 3.8×10^−7 and the “Frequency of Resistant” value ([3]; M9 Agar, E. coli Isolate 1a, Norvaline 2 μg/mL) was 4.8×10^−8. For the same compound, the “Frequency of Resistant” value ([3]; M9 Agar, E. coli Isolate 1a, Norvaline 4 μg/mL) was <1.7 × 10^−9, the “Frequency of Resistant” value ([3]; M9 Agar, E. coli Isolate 1a, Norvaline 8 μg/mL) was <1.7 × 10^−9 and the “Frequency of Resistant” value ([3]; M9 Agar, E. coli Isolate 1a, Norvaline 16 μg/mL) was <1.7 × 10^−9. The “Frequency of Resistant” value ([3]; M9 Agar, E. coli Isolate 1a, Norvaline 32 μg/mL) was <1.7 × 10^−9, the “Frequency of Resistant” value ([3]; M9 Agar, E. coli Isolate 1a, Norvaline 64 μg/mL) was <1.7 × 10^−9 and the “Frequency of Resistant” value ([3]; M9 Agar, E. coli baseline strain, Norvaline 0 μg/mL) was 4.9×10^−8. For the same compound, the “Frequency of Resistant” value ([3]; M9 Agar, E. coli baseline strain, Norvaline 2 μg/mL) was 2.8 × 10^−8, the “Frequency of Resistant” value ([3]; M9 Agar, E. coli baseline strain, Norvaline 4 μg/mL) was 2.0 × 10^−8 and the “Frequency of Resistant” value ([3]; M9 Agar, E. coli baseline strain, Norvaline 8 μg/mL) was 6.0 × 10^−8. The “Frequency of Resistant” value ([3]; M9 Agar, E. coli baseline strain, Norvaline 16 μg/mL) was 3.0 × 10^−9, the “Frequency of Resistant” value ([3]; M9 Agar, E. coli baseline strain, Norvaline 32 μg/mL) was <1.0 × 10^−9 and the “Frequency of Resistant” value ([3]; M9 Agar, E. coli baseline strain, Norvaline 64 μg/mL) was <1.0 × 10^−9. The “decrease in the frequency of resistance to GSK2251052” value ([3]; M9 minimal media, E. coli baseline strain, no norvaline versus >32 μg/mL) was ≥ 50 fold, the “decrease in the frequency of spontaneous resistance” value ([3]; M9 minimal media, E. coli clinical isolate from subject E. coli 1, no norvaline versus >4 μg/mL) was “over 200 fold” and the “effect of norvaline on frequency of resistance in rich media” value ([3]; both E. coli strains, rich media, GSK2251052 4 μg/mL, norvaline up to 64 μg/mL) was “remained the same; also recorded: did not change the frequency of spontaneous resistance”. The “frequency of resistance to GSK2251052” value ([3]; minimal media, E. coli clinical isolate 1a, norvaline ≧4 μg/mL) was < 1.7×10^−9, the “reduction of the appearance of mutants” value ([3]; minimal media, baseline E. coli strain, norvaline at 8 μg/mL) was 10 fold and the “frequency of resistance to GSK2251052” value ([3]; minimal media, baseline E. coli strain, norvaline ≧32 μg/mL) was < 1×10^−9. The “rates of spontaneous resistance” value ([4]; baseline isolates tested) was ~10^−7 and the “increase of MICs in clinical isolates” value ([4]; four subjects who developed spontaneous resistance, phase II trial) was > 32 fold.
